Source: US20080167314A1, “Condensed Imidazole Compound And Use Thereof” (priority 2004, published 2008)

| SMILES | melting point |
| --- | --- |
| COc1ccc(C(=O)Nc2cc(-c3c(-c4cccc(C)c4)nc4ccc(N(C)C)nn34)ccn2)cc1 [Example 45-1, N-{4-[6-(dimethylamino)-2-(3-methylphenyl)imidazo[1,2-b]pyridazin-3-yl]pyridin-2-yl}-4-methoxybenzamide] | 193 to 194 °C |
| COc1ccc(C(=O)Nc2cc(-c3c(-c4ccc(F)c(C)c4)nc4ccc(N(C)C)nn34)ccn2)cc1 [Example 45-2, N-{4-[6-(dimethylamino)-2-(4-fluoro-3-methylphenyl)imidazo[1,2-b]pyridazin-3-yl]pyridin-2-yl}-4-methoxybenzamide] | 224 to 225 °C |
| CNc1ccc2nc(-c3ccc(F)c(C)c3)c(-c3ccnc(NC(=O)c4ccc(OC)cc4)c3)n2n1 [Example 46, N-{4-[2-(4-Fluoro-3-methylphenyl)-6-(methylamino)imidazo[1,2-b]pyridazin-3-yl]pyridin-2-yl}-4-methoxybenzamide] | 178 to 180 °C |
| CNC(=O)Nc1cc(-c2c(-c3ccc(F)c(C)c3)nc3cccnn23)ccn1 [Example 47-1, N-{4-[2-(4-fluoro-3-methylphenyl)imidazo[1,2-b]pyridazin-3-yl]pyridin-2-yl}-N′-methylurea] | 225 to 227 °C |
| Cc1cc(-c2nc3cccnn3c2-c2ccnc(NC(=O)NC(C)(C)C)c2)ccc1F [Example 47-2, N-(tert-butyl)-N′-{4-[2-(4-fluoro-3-methylphenyl)imidazo[1,2-b]pyridazin-3-yl]pyridin-2-yl}urea] | 234 to 235 °C |
| CCC(C)NC(=O)Nc1cc(-c2c(-c3ccc(F)c(C)c3)nc3cccnn23)ccn1 (stereo not shown) [Example 47-3, N-(sec-butyl)-N′-{4-[2-(4-fluoro-3-methylphenyl)imidazo[1,2-b]pyridazin-3-yl]pyridin-2-yl}urea] | 196 to 197 °C |
| Cc1cc(-c2nc3cccnn3c2-c2ccnc(NC(=O)NCCCCl)c2)ccc1F [Example 47-4, N-(3-chloropropyl)-N′-{4-[2-(4-fluoro-3-methylphenyl)imidazo[1,2-b]pyridazin-3-yl]pyridin-2-yl}urea] | 170 to 171 °C |
| Cc1cc(-c2nc3cccnn3c2-c2ccnc(NC(=O)Nc3ccc(C#N)cc3)c2)ccc1F [Example 47-5, N-(4-cyanophenyl)-N′-{4-[2-(4-fluoro-3-methylphenyl)imidazo[1,2-b]pyridazin-3-yl]pyridin-2-yl}urea] | 204 to 206 °C |
| Cc1cc(-c2nc3cccnn3c2-c2ccnc(NC(=O)Nc3ccsc3)c2)ccc1F [Example 47-6, N-{4-[2-(4-fluoro-3-methylphenyl)imidazo[1,2-b]pyridazin-3-yl]pyridin-2-yl}-N′-3-thienylurea] | 234 to 235 °C |
| CCNC(=O)Nc1cc(-c2c(-c3ccc(F)c(C)c3)nc3c(C)cc(Cl)nn23)ccn1 [Example 48-1, N-{4-[6-chloro-2-(4-fluoro-3-methylphenyl)-8-methylimidazo[1,2-b]pyridazin-3-yl]-2-pyridyl}-N′-ethylurea] | 229 to 230 °C |
| CCNC(=O)Nc1cc(-c2c(-c3ccc(F)c(C)c3)nc3cc(C(C)(C)C)c(Cl)nn23)ccn1 [Example 48-2, N-{4-[7-tert-butyl-6-chloro-2-(4-fluoro-3-methylphenyl)imidazo[1,2-b]pyridazin-3-yl]-2-pyridyl}-N′-ethylurea] | 246 to 247 °C |
| CCNC(=O)Nc1cc(-c2c(-c3ccc(F)c(C)c3)nc3c(C)ccnn23)ccn1 [Example 48-3, N-{4-[2-(4-fluoro-3-methylphenyl)-8-methylimidazo[1,2-b]pyridazin-3-yl]-2-pyridyl}-N′-ethylurea] | 240 to 241 °C |
| CCNC(=O)Nc1cc(-c2c(-c3ccc(F)c(C)c3)nc3cc(C(C)(C)C)cnn23)ccn1 [Example 48-4, N-{4-[7-tert-butyl-2-(4-fluoro-3-methylphenyl)imidazo[1,2-b]pyridazin-3-yl]-2-pyridyl}-N′-ethylurea] | 212 to 213 °C |
| CCNC(=O)Nc1cc(-c2c(-c3ccc(F)c(C)c3)nc3ccc(NC)nn23)ccn1 [Example 48-5, N-ethyl-N′-{4-[2-(4-fluoro-3-methylphenyl)-6-(methylamino)imidazo[1,2-b]pyridazin-3-yl]pyridin-2-yl}urea] | 263 to 264 °C |
| Cc1cc(-c2nc3cccnn3c2-c2ccnc(NC(=O)NC3CC3)c2)ccc1F [Example 51-1, N-cyclopropyl-N′-{4-[2-(4-fluoro-3-methylphenyl)imidazo[1,2-b]pyridazin-3-yl]pyridin-2-yl}urea] | 222 to 223 °C |
| Cc1cc(-c2nc3cccnn3c2-c2ccnc(NC(=O)NCC(F)(F)F)c2)ccc1F [Example 51-2, N-{4-[2-(4-fluoro-3-methylphenyl)imidazo[1,2-b]pyridazin-3-yl]pyridin-2-yl}-N′-(2,2,2-trifluoroethyl)urea] | 229 to 230 °C |
| Cc1cc(-c2nc3cccnn3c2-c2ccnc(NC(=O)NCC(C)C)c2)ccc1F [Example 51-3, N-{4-[2-(4-fluoro-3-methylphenyl)imidazo[1,2-b]pyridazin-3-yl]pyridin-2-yl}-N′-isobutylurea] | 213 to 214 °C |
| CCC(CC)NC(=O)Nc1cc(-c2c(-c3ccc(F)c(C)c3)nc3cccnn23)ccn1 [Example 51-4, N-(1-ethylpropyl)-N′-{4-[2-(4-fluoro-3-methylphenyl)imidazo[1,2-b]pyridazin-3-yl]pyridin-2-yl}urea] | 187 to 188 °C |
| Cc1cc(-c2nc3cccnn3c2-c2ccnc(NC(=O)NCCS(C)(=O)=O)c2)ccc1F [Example 51-5, N-{4-[2-(4-fluoro-3-methylphenyl)imidazo[1,2-b]pyridazin-3-yl]pyridin-2-yl}-N′-[2-(methylsulfonyl)ethyl]urea] | 204 to 205 °C |
| CSc1ccc(NC(=O)Nc2cc(-c3c(-c4ccc(F)c(C)c4)nc4cccnn34)ccn2)cc1 [Example 51-6, N-{4-[2-(4-fluoro-3-methylphenyl)imidazo[1,2-b]pyridazin-3-yl]pyridin-2-yl}-N′-[4-(methylthio)phenyl]urea] | 219 to 220 °C |
| Cc1cc(-c2nc3cccnn3c2-c2ccnc(NC(=O)Nc3cccnc3)c2)ccc1F [Example 51-7, N-{4-[2-(4-fluoro-3-methylphenyl)imidazo[1,2-b]pyridazin-3-yl]pyridin-2-yl}-N′-(pyridin-3-yl)urea] | 233 to 234 °C |
| Cc1cc(NC(=O)Nc2cc(-c3c(-c4ccc(F)c(C)c4)nc4cccnn34)ccn2)[nH]n1 [Example 51-8, N-{4-[2-(4-fluoro-3-methylphenyl)imidazo[1,2-b]pyridazin-3-yl]pyridin-2-yl}-N′-(3-methyl-1H-pyrazol-5-yl)urea] | 239 to 240 °C |
| Cc1cc(-c2nc3cccnn3c2-c2ccnc(NC(N)=O)c2)ccc1F [Example 51-9, N-{4-[2-(4-fluoro-3-methylphenyl)imidazo[1,2-b]pyridazin-3-yl]pyridin-2-yl}urea] | 254 to 255 °C |
| Cc1cc(-c2nc3cccnn3c2-c2ccnc(NC(=O)NC3CCC(O)CC3)c2)ccc1F (stereo not shown) [Example 51-10, N-{4-[2-(4-fluoro-3-methylphenyl)imidazo[1,2-b]pyridazin-3-yl]pyridin-2-yl}-N′-(4-hydroxycyclohexyl)urea] | 218 to 220 °C |
| Cc1cc(-c2nc3cccnn3c2-c2ccnc(NC(=O)NCC(C)O)c2)ccc1F (stereo not shown) [Example 51-13, N-{4-[2-(4-fluoro-3-methylphenyl)imidazo[1,2-b]pyridazin-3-yl]pyridin-2-yl}-N′-(2-hydroxypropyl)urea] | 139 to 140 °C |
